T1: SaUspA (Sulfolobus acidocaldarius, UniProt Q4JAC8)
T1 construct: gene Saci_0887
T1 sequence (Q4JAC8 1-128): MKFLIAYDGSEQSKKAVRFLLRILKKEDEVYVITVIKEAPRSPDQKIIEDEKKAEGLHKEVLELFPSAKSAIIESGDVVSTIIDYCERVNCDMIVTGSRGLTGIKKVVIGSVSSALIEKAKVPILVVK

T2: ArnD (Sulfolobus acidocaldarius, UniProt Q4J879)
T2 construct: gene Saci_1694; purified kinase; expression in E. coli Rosetta (DE3)/pLysS, construct details in earlier work
T2 sequence (Q4J879 1-413): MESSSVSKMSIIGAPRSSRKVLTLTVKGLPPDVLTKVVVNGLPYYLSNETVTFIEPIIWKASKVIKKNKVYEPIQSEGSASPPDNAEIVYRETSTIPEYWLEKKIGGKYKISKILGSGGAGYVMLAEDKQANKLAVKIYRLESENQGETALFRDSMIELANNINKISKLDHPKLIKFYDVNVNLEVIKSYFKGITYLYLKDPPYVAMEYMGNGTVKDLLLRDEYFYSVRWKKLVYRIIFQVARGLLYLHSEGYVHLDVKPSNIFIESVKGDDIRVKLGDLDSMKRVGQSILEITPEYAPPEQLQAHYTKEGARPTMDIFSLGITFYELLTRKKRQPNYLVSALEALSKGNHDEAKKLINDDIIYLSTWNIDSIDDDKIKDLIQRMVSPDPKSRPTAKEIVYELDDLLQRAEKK

T3: ArnC (Sulfolobus acidocaldarius, UniProt Q4J9J0)
T3 construct: gene Saci_1193; purified kinase; expression in E. coli Rosetta (DE3)/pLysS, construct details in earlier work
T3 sequence (Q4J9J0 1-663): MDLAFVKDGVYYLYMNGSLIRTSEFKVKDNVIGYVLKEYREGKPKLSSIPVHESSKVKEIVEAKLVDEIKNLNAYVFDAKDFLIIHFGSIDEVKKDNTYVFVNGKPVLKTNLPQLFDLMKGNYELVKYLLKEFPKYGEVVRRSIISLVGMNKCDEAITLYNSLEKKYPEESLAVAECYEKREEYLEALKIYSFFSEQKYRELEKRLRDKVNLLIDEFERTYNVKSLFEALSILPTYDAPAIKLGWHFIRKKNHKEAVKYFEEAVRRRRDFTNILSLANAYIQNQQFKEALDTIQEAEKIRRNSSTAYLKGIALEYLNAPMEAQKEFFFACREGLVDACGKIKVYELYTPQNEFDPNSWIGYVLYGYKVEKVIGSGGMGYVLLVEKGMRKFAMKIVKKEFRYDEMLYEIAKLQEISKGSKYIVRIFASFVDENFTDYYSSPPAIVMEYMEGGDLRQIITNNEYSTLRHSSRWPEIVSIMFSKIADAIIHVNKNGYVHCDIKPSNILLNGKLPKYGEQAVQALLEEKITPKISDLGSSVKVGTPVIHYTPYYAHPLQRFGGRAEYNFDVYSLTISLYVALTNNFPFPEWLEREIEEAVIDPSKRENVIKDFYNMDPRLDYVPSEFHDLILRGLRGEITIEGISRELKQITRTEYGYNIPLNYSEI


Legend:
[1] = molecular target: T1, SaUspA; assay: Ni-NTA co-purification with PP2A-his, Western blot; settings: 1 mM ATP, 5 mM MgCl2, pH 8; ATP increases binding to PP2A
[2] = molecular target: T2, ArnD; assay: in vitro phosphorylation, autophosphorylation; assay type: biochemical; settings: 1 mM MnCl2, pH 8, 55°C; labelled compound
[3] = molecular target: T3, ArnC; assay: in vitro phosphorylation, autophosphorylation; assay type: biochemical; settings: 1 mM MnCl2, pH 8, 55°C; labelled compound
[4] = molecular target: the molecule itself; assay: SEC; purified Strep II-tagged SaUspA on a Superdex 200 10/300 GL column in lysis buffer (50 mM Tris pH8, 150 mM NaCl); standards of 158, 44, 17 and 1.35 kDa; peak at about 30 kDa against 16.2 kDa for the monomer

Molecule	Ni-NTA co-purification with PP2A-his, Western blot [1]	in vitro phosphorylation, autophosphorylation [2]	in vitro phosphorylation, autophosphorylation [3]	stoichiometry N [4]
Nc1ncnc2c1ncn2[C@@H]1O[C@H](COP(=O)(O)OP(=O)(O)OP(=O)(O)O)[C@@H](O)[C@H]1O [ATP]	This indicated that ATP-binding of SaUspA enhanced its interaction with PP2A	autophosphorylation was detected for both ArnC and ArnD	autophosphorylation was detected for both ArnC and ArnD	
C-terminally StrepII-tagged SaUspA (universal stress protein UspA of Sulfolobus acidocaldarius, Saci_0887) (natural protein, UniProt Q4JAC8 1-128, looked up, SaUspA (UspA, Saci_0887), universal stress protein of Sulfolobus acidocaldarius; printed molecular weight 16.2 kDa; Made nucleotide free by ammonium sulfate precipitation; in some samples pre-incubated with 1 mM ATP and 5 mM MgCl2; also called SaUspA-Strep; SaUspA^WT; not shown: StrepII, C-terminal, kept) MKFLIAYDGSEQSKKAVRFLLRILKKEDEVYVITVIKEAPRSPDQKIIEDEKKAEGLHKEVLELFPSAKSAIIESGDVVSTIIDYCERVNCDMIVTGSRGLTGIKKVVIGSVSSALIEKAKVPILVVK				2

Reference: PMC7693658, “SaUspA, the Universal Stress Protein of Sulfolobus acidocaldarius Stimulates the Activity of the PP2A Phosphatase and Is Involved in Growth at High Salinity” (Frontiers in Microbiology, 2020)
